Measured values from patent publication US20150031102A1, “METHODS AND COMPOSITIONS FOR ENHANCED PRODUCTION OF BUTANOL BY CLOSTRIDIA” (Butrolix LLC, priority 2012, published 2015).
“Also recorded” adds a separate entry of the source. Marks after values point to notes of the source that are not given here.

Tested on: C. acetobutylicum
Experiment: Time course study of replicate 250 mL batch cultures (growth, butanol, residual glucose, yield, productivity)
Assay type: cell-based, Clostridium acetobutylicum
Conditions: for Residual glucose: initial glucose 60 g/L; for Butanol yield from glucose: starting glucose 60 g/L; for Increased butanol concentration versus untreated: 50 nM BP1106213
Description: Subsequently, time-course studies were conducted using the optimum peptide treatment level that was determined by the sequential batch transfer experiments. Untreated and peptide-treated cultures were grown in triplicate 250 mL batches that were inoculated with […] of the ninth sequential transfer from 24-well culture plates. The 1/1000 ratio of inoculum to culture volume was the same as that used throughout the prior sequential batch transfer experiments, and the replicate time course batch cultures corresponded to the 10th sequential batch transfer. Samples were recovered from the triplicate control and experimental batches a regular time intervals up to 96 hours of culture. Optical density of the replicates was measured and culture supernatants were recovered following centrifugation and analyzed later for butanol and residual glucose concentrations. The analyses were used to calculate yield and productivity of the cultures.
Clostridium acetobutylicum strain ATCC 824 was used in all experiments and the growth medium used for sequential batch transfer, time course, and continuous culture experiments contained yeast extract, casamino acids, L-cysteine, L-asparagine, phosphate buffer, trace minerals, and 6% glucose. What are believed to be quorum-sensing peptides that were used in the experiments were chemically synthesized peptides SEQ ID NO: 143 (amino acid sequence: SYPGWSW) and SEQ ID NO: 144 (amino acid sequence: ILILISG). Routine growth of the bacteria as well as the sequential batch and time course experiments were conducted in a Form a Scientific Model 1029 anaerobic gas chamber at 32° C. Continuous cultures were performed at 32° C. using duplicate New Brunswick Scientific BioFlo 3000 apparati with a dilution rate of 0.01 volume per hour, 75 rpm agitation, and nitrogen gas sparging. Optical density of culture samples was measured at 600 nm in a Beckman DU 600 series spectrophotometer and glucose was analyzed using a YSI Model 2700 Select Biochemistry Analyzer with internal glucose calibration. Butanol concentrations were determined by measuring experimental and standard samples using a Varian Saturn 3 Gas Chromatograph/Mass Spectrometer and calculating butanol concentrations using standard curves.
(§1) The study was started by inoculating triplicate 250 mL batches of untreated and peptide-treated medium with 250 μL of the corresponding ninth sequential transfer from 24-well culture plates. Therefore, the replicate time course batch cultures corresponded to the 10th sequential batch transfer. Samples were recovered from the triplicate control and experimental batches at regular time intervals up to 96 hours of culture for measurement of optical density at 600 nm and analysis of butanol and residual glucose concentrations.
as §1, with “Like the previous time course experiment, this” for “The”, “As before, samples” for “Therefore, the replicate time course batch cultures corresponded to the 10th sequential batch transfer. Samples”, “density” for “density at 600 nm”

[1] = 50 nM peptide, 0 hours, average ± SD of triplicate, second time course study
[2] = 50 nM peptide, 6 hours, average ± SD of triplicate, second time course study
[3] = 50 nM peptide, 12 hours, average ± SD of triplicate, second time course study
[4] = 50 nM peptide, 15 hours, average ± SD of triplicate, second time course study
[5] = 50 nM peptide, 18 hours, average ± SD of triplicate, second time course study
[6] = 50 nM peptide, 21 hours, average ± SD of triplicate, second time course study
[7] = 50 nM peptide, 24 hours, average ± SD of triplicate, second time course study
[8] = 50 nM peptide, 27 hours, average ± SD of triplicate, second time course study
[9] = 50 nM peptide, 30 hours, average ± SD of triplicate, second time course study
[10] = 50 nM peptide, 33 hours, average ± SD of triplicate, second time course study
[11] = 50 nM peptide, 36 hours, average ± SD of triplicate, second time course study
[12] = 50 nM peptide, 48 hours, average ± SD of triplicate, second time course study
[13] = 50 nM peptide, 72 hours, average ± SD of triplicate, second time course study
[14] = 50 nM peptide, 96 hours, average ± SD of triplicate, second time course study

## SYPGWSW [peptide SEQ ID NO: 143]
50 nM peptide, 0 hours, average ± SD of triplicate
  Residual glucose: 53.7 ± 0.9 g/L
50 nM peptide, 0 hours
  Butanol yield from glucose: 0.001 g butanol/g glucose
50 nM peptide, 6 hours, average ± SD of triplicate
  Residual glucose: 56.2 ± 0.4 g/L
50 nM peptide, 6 hours
  Butanol yield from glucose: 0.001 g butanol/g glucose
50 nM peptide, 12 hours, average ± SD of triplicate
  Residual glucose: 56.1 ± 0.7 g/L
50 nM peptide, 12 hours
  Butanol yield from glucose: 0.001 g butanol/g glucose
50 nM peptide, 18 hours, average ± SD of triplicate
  Residual glucose: 54.7 ± 0.2^c g/L
50 nM peptide, 18 hours
  Butanol yield from glucose: 0.002 g butanol/g glucose
50 nM peptide, 21 hours, average ± SD of triplicate
  Residual glucose: 52.0 ± 0.3 g/L
50 nM peptide, 21 hours
  Butanol yield from glucose: 0.002 g butanol/g glucose
50 nM peptide, 24 hours, average ± SD of triplicate
  Residual glucose: 49.7 ± 0.5^c g/L
50 nM peptide, 24 hours
  Butanol yield from glucose: 0.003 g butanol/g glucose
50 nM peptide, 27 hours, average ± SD of triplicate
  Residual glucose: 46.4 ± 0.4 g/L
50 nM peptide, 27 hours
  Butanol yield from glucose: 0.007 g butanol/g glucose
50 nM peptide, 30 hours, average ± SD of triplicate
  Residual glucose: 46.6 ± 0.4 g/L
50 nM peptide, 30 hours
  Butanol yield from glucose: 0.011 g butanol/g glucose
50 nM peptide, 33 hours, average ± SD of triplicate
  Residual glucose: 45.9 ± 0.6 g/L
50 nM peptide, 33 hours
  Butanol yield from glucose: 0.032 g butanol/g glucose
50 nM peptide, 36 hours, average ± SD of triplicate
  Residual glucose: 46.2 ± 0.5 g/L
50 nM peptide, 36 hours
  Butanol yield from glucose: 0.032 g butanol/g glucose
50 nM peptide, 48 hours, average ± SD of triplicate
  Residual glucose: 45.7 ± 0.3 g/L
50 nM peptide, 48 hours
  Butanol yield from glucose: 0.033 g butanol/g glucose
50 nM peptide, 72 hours, average ± SD of triplicate
  Residual glucose: 45.8 ± 0.1 g/L
50 nM peptide, 72 hours
  Butanol yield from glucose: 0.028 g butanol/g glucose
50 nM peptide, 96 hours, average ± SD of triplicate
  Residual glucose: 45.8 ± 0.2^c g/L
50 nM peptide, 96 hours
  Butanol yield from glucose: 0.029 g butanol/g glucose
50 nM peptide, sampling interval ending at 6 hours
  Butanol productivity: 0.000 g butanol/L-h
50 nM peptide, sampling interval ending at 12 hours
  Butanol productivity: 0.000 g butanol/L-h
50 nM peptide, sampling interval ending at 18 hours
  Butanol productivity: 0.010 g butanol/L-h
50 nM peptide, sampling interval ending at 21 hours
  Butanol productivity: 0.004 g butanol/L-h
50 nM peptide, sampling interval ending at 24 hours
  Butanol productivity: 0.024 g butanol/L-h
50 nM peptide, sampling interval ending at 27 hours
  Butanol productivity: 0.074 g butanol/L-h
50 nM peptide, sampling interval ending at 30 hours
  Butanol productivity: 0.069 g butanol/L-h
50 nM peptide, sampling interval ending at 33 hours
  Butanol productivity: 0.377 g butanol/L-h
50 nM peptide, sampling interval ending at 36 hours
  Butanol productivity: 0.002 g butanol/L-h
50 nM peptide, sampling interval ending at 48 hours
  Butanol productivity: 0.002 g butanol/L-h
50 nM peptide, sampling interval ending at 72 hours
  Butanol productivity: −0.011 g butanol/L-h
50 nM peptide, sampling interval ending at 96 hours
  Butanol productivity: 0.002 g butanol/L-h
50 nM, 33 hours
  Butanol concentration relative to untreated cultures: more than double
  Yield of butanol relative to untreated cultures: more than double
50 nM, end of the study (96 hours of growth)
  Butanol yield increase compared to untreated culture: 53%
50 nM, peak butanol formation stage (between 24 and 33 hours), listed as BP110517
  Butanol productivity relative to untreated cultures: nearly doubled; also recorded: more than doubled
BP110517, batch cultures (summary of findings)
  Increase in butanol yield: more than 50%
Treated, 50 nM, 0 hours, average and standard deviation of triplicate samples
  Butanol concentration: 0.06 ± 0.00 g/L
Treated, 50 nM, 6 hours, average and standard deviation of triplicate samples
  Butanol concentration: 0.06 ± 0.00 g/L
Treated, 50 nM, 12 hours, average and standard deviation of triplicate samples
  Butanol concentration: 0.06 ± 0.00 g/L
Treated, 50 nM, 18 hours, average and standard deviation of triplicate samples
  Butanol concentration: 0.09 ± 0.00^c g/L
Treated, 50 nM, 21 hours, average and standard deviation of triplicate samples
  Butanol concentration: 0.10 ± 0.00 g/L
Treated, 50 nM, 24 hours, average and standard deviation of triplicate samples
  Butanol concentration: 0.17 ± 0.01^c g/L
Treated, 50 nM, 27 hours, average and standard deviation of triplicate samples
  Butanol concentration: 0.39 ± 0.03^c g/L
Treated, 50 nM, 30 hours, average and standard deviation of triplicate samples
  Butanol concentration: 0.60 ± 0.03^c g/L
Treated, 50 nM, 33 hours, average and standard deviation of triplicate samples
  Butanol concentration: 1.73 ± 0.27^c g/L
Treated, 50 nM, 36 hours, average and standard deviation of triplicate samples
  Butanol concentration: 1.74 ± 0.16 g/L
Treated, 50 nM, 48 hours, average and standard deviation of triplicate samples
  Butanol concentration: 1.76 ± 0.26^c g/L
Treated, 50 nM, 72 hours, average and standard deviation of triplicate samples
  Butanol concentration: 1.48 ± 0.29 g/L
Treated, 50 nM, 96 hours, average and standard deviation of triplicate samples
  Butanol concentration: 1.53 ± 0.29 g/L

## ILILISG (Derived from Clostridium acetobutylicum SEQ ID NO: 110) [peptide SEQ ID NO: 144]
72 hours of culture growth
  Increased butanol concentration versus untreated: ≤ 15%
96 hours of culture growth
  Increased butanol concentration versus untreated: ≤ 21%
[1]
  Butanol concentration: 0.23 ± 0.00 g/L
  Residual glucose: 59.1 ± 0.9 g/L
[2]
  Butanol concentration: 0.24 ± 0.00 g/L
  Residual glucose: 59.8 ± 0.9 g/L
[3]
  Butanol concentration: 0.26 ± 0.01^c g/L
  Residual glucose: 60.7 ± 0.8 g/L
[4]
  Butanol concentration: 0.26 ± 0.01^c g/L
  Residual glucose: 58.4 ± 0.5 g/L
[5]
  Butanol concentration: 0.28 ± 0.01^c g/L
  Residual glucose: 57.4 ± 0.7 g/L
[6]
  Butanol concentration: 0.32 ± 0.01 g/L
  Residual glucose: 60.6 ± 0.8 g/L
[7]
  Butanol concentration: 0.52 ± 0.01^c g/L
  Residual glucose: 49.4 ± 0.7 g/L
[8]
  Butanol concentration: 0.64 ± 0.01 g/L
  Residual glucose: 50.4 ± 1.9 g/L
[9]
  Butanol concentration: 0.70 ± 0.04 g/L
  Residual glucose: 49.7 ± 1.9 g/L
[10]
  Butanol concentration: 0.82 ± 0.03 g/L
  Residual glucose: 47.6 ± 1.2 g/L
[11]
  Butanol concentration: 0.82 ± 0.03 g/L
  Residual glucose: 47.4 ± 1.3 g/L
[12]
  Butanol concentration: 1.00 ± 0.03 g/L
  Residual glucose: 44.9 ± 0.5 g/L
[13]
  Butanol concentration: 1.17 ± 0.12^c g/L
  Residual glucose: 44.1 ± 3.1 g/L
[14]
  Butanol concentration: 0.98 ± 0.07 g/L
  Residual glucose: 46.4 ± 0.9^c g/L
